Patent US11812746B2, “Method of controlling fungal infections in plants” (THE STATE OF ISRAEL, MINISTRY OF AGRICULTURE & RURAL …, priority 2016, dated 2023)

Assays:
B. cinerea [1] = assay: Cut Ruscus branches drenched or dipped in Phe, leaves wounded and inoculated with B. cinerea; assay type: in vivo, Botrytis cinerea; settings: whole branches dipped for an hour in 6 mM
Method: Ruscus branches serve as an ornamental decorative. These plants are very susceptible to Botrytis. Cut branches were treated with Phe either by drenching the tip of the cut branch in the Phe solution (FIG. 4B), or dipping the whole cut branch in Phe solution for an hour before dipping it in water and inoculating with botrytis. In both treatments the concentration used was 6 mM phenylalanine, and for the drenching treatment an additional concentration of 20 mM was added (FIG. 4A). For the dipping experiment 50 ppm T.O.G-6 was added to the Phe solution to prevent bacterial growth during the days of the experiment. Control branches were drenched in water and dipped in water with 50 ppm T.O.G-6. Ruscus leaves were wounded and inoculated with B. cinerea as described in the above Examples. Decay area (mm*2) results are presented as averages of 10 replications with each being a leaf from one of 10 branches±SE.

Pythium aphanidermatum = assay: Cucumber plantlets, damping off disease after drench; assay type: in vivo; settings: 4 mM drench
Method: Phe concentration used was 4 mM. Results are presented by the percentage of dead plants incidence (FIG. 9A). FIG. 9B: control treatment=lower row and Phe treatment=upper row.
Cucumber plantlets cv. Bet Alpha and grown in peat based growing medium were treated either by drenching 4 mM phenylalanine solution, 10 ml per pot containing 4 plants each. and the percent plantlets that survived was determined in each treatment. […] FIG. 9B presents two pots of each treatment; Pots in the lower row were not treated and pots in upper row were treated with 4 mM Phe.

Sclerotinia sclerotiorum [2] = assay: Sweet basil plants in pots, white rot after mycelium disc inoculation; assay type: in vivo; settings: 4.1 mM, spray or drench
Method: Phe concentration used was 4.1 mM. Results are presented by disease severity scoring of AUDPC (area under disease progress curve during 6 days after infection) where the severity is marked by units of rot diameter (mm) multiplied by the time of incubation.
Sweet basil plants in pots were treated with 4.1 mM Phe as described for tomato, and inoculated with a S. sclerotiorum mycelium disc from 4 days potato dextrose agar culture (White rot), related to botrytis, both being from the Ascomycota division.

Alternaria alternata = assay: Postharvest avocado fruit dip, inoculation with Alternaria alternata; assay type: in vivo; settings: avocado 'Ettinger', dip 30 seconds at 1-4 mM, 6 days post inoculation, 23° C.
Method: FIG. 8 are images of avocado fruits of the cultivar ‘Ettinger’ dipped in water or 1 mM or 4 mM phenylalanine for 30 seconds and stored for one day at 5° C. Then the avocado fruit were inoculated by wounding at the fruit equatorial with […] of spore suspension of Alternaria alternata at the concentration of 10^5 conidia/ml at two sides of the fruit. The fruits were stored at 23° C. The decay area was monitored during 6 days post inoculation. Clearly, the fruit treated with Phe solutions, postharvest show
Avocado fruits of the cultivar ‘Ettinger’ were dipped in water or 1 mM or 4 mM phenylalanine for 30 seconds and stored for one day at 5° C. Then the avocado fruit were inoculated at the fruit equatorial with Alternaria alternata at the concentration of 10^5 conidia/ml at two sides of the fruit. The decay area was monitored during 6 days post inoculation, while incubation at 23° C.

B. cinerea [3] = assay: Whole petunia plants sprayed or pots drenched, leaves inoculated with B. cinerea; assay type: in vivo, Botrytis cinerea; settings: for B. cinerea infection (decay area): 0.5 mM, spraying
Method: Inoculation with B. cinerea was performed 3 days after Phe treatment. In this case only one Phe treatment was performed however multiple treatments can be used e.g., first-three days prior to inoculation and a second one on the day of inoculation (data not shown but results are similar). 18 leaves were inoculated with B. cinerea, as described above. The plants were covered with a nylon bag and kept in the light and 22° C. (as above).
Commercial petunia plants (‘Dream Heaven’) were treated as described above in Example 3, either by spraying the plants (FIG. 3A) or drenching the pots (FIG. 3B), this time with increasing concentrations of Phe (6-50 mM).

Sclerotinia sclerotiorum [4] = assay: Tomato leaves, white rot after spray or drench treatment; assay type: in vivo; settings: spray and drench, 4 mM
Method: Phe concentration used was 4 mM. Results are presented by disease severity scoring of AUDPC (area under disease progress curve during 15 days after infection) where the severity is marked by units of rot area (mm^2) multiplied by the time of incubation.

[5] = tested on: Botrytis cinerea strain BO-05; assay: Detached petunia leaves dipped in Phe, wound inoculated with B. cinerea conidia; assay type: in vivo; settings: 15 mM Phe dip, 7 days post inoculation, vs non-treated controls
Method: Petunia (Petunia×hybrida) V26 variety, and a commercial white flowered cultivar (Dream White) cultivars were used. Petunia plants were grown as described in Oliva et al., (2015). Arabidopsis plants were grown as described in Tzin et al., (2012).
Conidia of Botrytis cinerea strain BO-05 were grown on PDA medium for 10 days. Conidia were gently collected from the plate in sterile water and were diluted to 10^6 conidia/ml. Fresh leaves of similar age and size of Petunia or Arabidopsis were detached from the plant, washed with water and placed in a humid chamber, under artificial light at 22° C. The upper side of the leaves was wounded (1-2 mm) and 5 μl drops of conidia suspension at a concentration of 10^6 conidia/ml were placed on the artificial wound. Decay diameter was measured following inoculation in specific days post inoculation (dpi) as detailed in the results.
Petunia leaves were dipped for 10 min in double distilled water with 0.02% Silwett L-77 surfactant supplemented either with 15 mM or 0 mM phenylalanine. Leaves were then placed in a humid box, and wound inoculated with B. cinerea was performed as described above.
In an independent experiment the decay diameter of detached leaves of wild type petunia (V26 cultivar) treated with 15 mM Phe or with […]. […]
Necrotic area was measured at 3, 4 and 7 days post inoculation (dpi). […]

[6] = tested on: Botrytis cinerea (isolate BcI16); assay: Gray mold on attached leaves of tomato plants treated by spray or drench; assay type: in vivo; settings: for B. cinerea infection (disease severity): 0.5 mM, spraying
Method: Tomato plants (tomato cultivar-Brigate) were grown from seeds in a nursery and transplanted into 1 liter pots at 40 to 50 days following seeding in an unheated greenhouse. Plants were fertilized proportionally with drippers 2-3 times per day with 5:3:8 NPK fertilizer (irrigation water was planned to have total N, P and K concentrations of 120, 30 and 150 mg/L, respectively; EC 2.2 dS/m), allowing for 25-50% drainage. Plants were maintained at 20-30° C. with natural light, and relative humidity of 50-90% in a pest- and disease-free greenhouse during the growth period and then transferred to an area where disease was allowed to develop following pathogen infection on intact leaves as described below.
Botrytis cinerea [Pers.:Fr. [Teleomorph: Botryotinia fuckeliana (de Bary) Whetzel] (isolate BcI16; [Swartzberg D. et al., Eur. J. Plant Pathol., 2008, 120:289-297])] was cultured on potato dextrose agar (PDA, Difco, Detroit, MI) in 90 mm diam. petri plates containing 15 ml PDA each and incubated at 20° C. The inoculum was maintained on PDA and transferred every two weeks. Gray mold conidia were harvested from 10 to 14 day-old cultures by agitating 1 cm^2 of agar bearing mycelium and conidia in a glass tube with tap water. The suspension was then filtered through cheesecloth. The concentration of conidia was determined using a haemocytometer and a light microscope, and adjusted to 5×10^5 conidia/ml. Since B. cinerea conidia need carbon and phosphate for germination and penetration, 0.1% glucose was added to the final conidial suspension together with 0.1% KH2PO4.
Plant attached tomato leaves were examined. Whole plants were kept in a humidity chamber at 22±1° C., 97±3% RH, and 1020 lux light intensity. Plants were infected by placing 10 μL drops of a 5×10^5 conidia/ml suspension, 5 drops/leaf (one drop on each leaflet), on two mature leaves.
Disease severity was evaluated on each plant using a pictorial key; 0=no infection (infection site is symptomless) and 100=all infection site fully covered by gray mold symptoms. The analyses were performed in the mentioned plants.
Phenylalanine treatment consisted of either spray or drench at concentrations of 0.5-4.1 mM administrated 3 and 0 days before infection with B. cinerea. Control plants were treated by water and kept under the same conditions as mentioned above.
Treatments in experiments were replicated 5 times. Replicates of each treatment were arranged randomly. Disease severity data in percentages were arcsin-transformed before further analysis. Disease severity data were analyzed using ANOVA and Fisher's protected LSD test and disease levels were statistically separated (P≤0.05) following a one-way analysis of variance.
Specifically, tomato plants were sprayed with increasing concentrations of Phe solutions (0.5-30 mM aquatic solution of Phe, no detergent) and percent disease severity was determined 11 days following treatment.

[7] = tested on: Plenodomus tracheiphilus syn Phoma tracheiphila; assay: Lemon plants in pots, mal secco disease after leaf wounding and conidia infection; assay type: in vivo; settings: 4 mM, drenching 10 ml per pot or spraying
Method: Phe concentration used was 4 mM. Results are presented by disease incidence of infection sites as percent resulting from drench treatment (lower FIG. 7A) and spray treatment (upper FIG. 7A)
Lemon plants in pots were treated with 4 mM Phe water solutions either by drenching 10 ml of solution per pot or spraying, as described for tomato. Infection was carried out by conidia suspension of Plenodomus tracheiphilus after leaf wounding by a needle. Disease incidence was evaluated according to the amount of successful infection sites on the infected leaves and presented as percent of infected leaves.

Structure (SMILES) | resistance to botrytis (decay area) (B. cinerea [1]) | tolerance to Pythium aphanidermatum (percentage of dead plants) (Pythium aphanidermatum) | disease symptoms (white rot) (Sclerotinia sclerotiorum [2]) | area of brown spots (Alternaria alternata) | resistance of the plants to B. cinerea at higher concentrations (B. cinerea [3]; petunia 'Dream Heaven', spray or drench, 6-50 mM) | B. cinerea infection (decay area) (B. cinerea [3]; petunia) | decay area (B. cinerea [3]; petunia, 35 and 50 mM, 7 days after spraying and 10 days after drenching) | degree of resistance, 4.1 mM compared with 6 mM (B. cinerea [3]; whole petunia plants, 4.1 mM Phe vs 6 mM Phe) | tolerance to B. cinerea (decay area) (B. cinerea [3]; whole petunia plants, spraying or drenching, 6 mM, inoculation 3 days after treatment) | resistance of tomato leaves to white rot (Sclerotinia sclerotiorum [4]) | diameter of decay [5] | effect of adding a surfactant on resistance to B. cinerea ([6]; 0.5 mM Phe with 0.01% Tween 80 vs without) | B. cinerea infection (disease severity) [6] | disease severity (gray mold) ([6]; drench to the root zone, 0.5 to 4.1 mM) | duration of resistance ([6]; spray, 20 and 30 mM (results not shown)) | disease severity (gray mold) ([6]; sprayed on the plants, 1.0 to 4.1 mM) | resistance of the plant leaves to the fungus (disease incidence) [7]
N[C@@H](Cc1ccccc1)C(=O)O [Phe, Phenylalanine] | increased resistance of the plants to botrytis significantly | increased tolerance | significant reduction in disease symptoms | reduced the area of brown spots caused by Alternaria alternata by four folds | increased resistance | reduced B. cinerea infection | no increased decay area | a little lower | Increases Tolerance | increase the resistance | significantly smaller | improved the effect of increased resistance | reduced B. cinerea infection | reduced significantly | increased resistance for a longer period of time | reduced significantly | increased the resistance
N[C@@H](Cc1ccc(O)cc1)C(=O)O [Tyr, Tyrosine] | – | – | – | – | – | reduced B. cinerea infection | – | – | – | – | – | – | reduced B. cinerea infection | – | – | – | –
